Results published in patent publication US5189212A, “Triarylethylene carboxylic acids with estrogenic activity” (University of Georgia Research Foundation, Inc., priority 1990, dated 1993).
“Also recorded” adds a separate entry of the source.

Key:
[1] = system: UDP glucuronyl transferase; conditions: rat, microsomes, 0.5 h
[2] = system: UDP glucuronyl transferase; experiment: Rat liver microsomal glucuronidation; conditions: for Vmax: detergent-activated rat liver microsomes, 37° C., 30 min, average of two to three experiments; for substrate for UDP glucuronyl transferase: rat liver microsomes, in vitro
estrogen receptor = target: T1, estrogen receptor (Rattus norvegicus, UniProt P06211); experiment: Estrogen receptor affinity: competition with [3H]estradiol binding in rat uterine cytosol; conditions: for estrogen receptor affinity relative to estradiol (affinity=100): estradiol = 100
T1 construct: Uteri from Sprague-Dawley rats (200-250g) are homogenized; from tissue; host or cells: rat uterus, 100000g supernatant (cytosol), Sprague-Dawley
T1 sequence (P06211 1-600): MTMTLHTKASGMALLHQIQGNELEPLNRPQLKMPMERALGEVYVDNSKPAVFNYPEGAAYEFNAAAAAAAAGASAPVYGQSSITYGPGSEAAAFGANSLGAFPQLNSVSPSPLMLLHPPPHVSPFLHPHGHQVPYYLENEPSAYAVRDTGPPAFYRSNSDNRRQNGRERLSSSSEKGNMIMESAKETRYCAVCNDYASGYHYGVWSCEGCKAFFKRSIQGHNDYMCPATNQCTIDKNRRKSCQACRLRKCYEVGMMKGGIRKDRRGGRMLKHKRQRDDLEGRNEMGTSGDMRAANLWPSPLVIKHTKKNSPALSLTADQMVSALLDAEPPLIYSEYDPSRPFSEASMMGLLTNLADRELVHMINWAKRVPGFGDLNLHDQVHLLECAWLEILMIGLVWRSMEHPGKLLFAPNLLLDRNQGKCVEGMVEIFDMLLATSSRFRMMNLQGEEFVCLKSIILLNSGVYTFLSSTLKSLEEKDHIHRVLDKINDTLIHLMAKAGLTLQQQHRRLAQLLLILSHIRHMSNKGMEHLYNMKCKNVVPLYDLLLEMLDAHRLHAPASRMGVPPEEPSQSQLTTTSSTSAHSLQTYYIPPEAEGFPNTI
Experimental: The estrogen receptor affinity of the triarylethylenes of Formula I can be measured according to the method of Ruenitz, et.al., J. Med. Chem., 25:1056, (1982).
[^3 H]Estradiol (58 Ci/mmol) can be obtained from Amersham Corp., and its radiochemical purity checked by TLC. Uteri from Sprague-Dawley rats (200-250g) are homogenized (1 uterus/2 mL) in ice-cold 10 mM Tris buffer, pH 7.4, that contains 1.5 mM EDTA and 3 mM sodium azide (TEA buffer). The homogenate is centrifuged at 100000g for 1 hour at 4° C. Incubation mixtures should contain 200-μμL aliquots of the supernatant, and 10 μL of a solution of 1.1×10^-7 M [^3 H]estradiol in dimethylacetamide, and 10 μL unlabeled competitor in dimethylacetamide. Ten concentrations of competitor are used ranging from 1×10^-9 to 5×10^-5 M. Control incubations should contain 10 μL of solvent alone. Nonspeoifio binding is determined in similarly prepared incubations that contain 1×10^-5 M estradiol. Incubations should be performed in triplicate, in 5-mL polypropylene centrifuge tubes, at 2°- 4° C. for 4 hours. Then a suspension of 400 μL of dextran-coated charcoal [0.1% dextran (Sigma no. D-1390), 1% acid-washed Norit A in TEA buffer]is added, and the incubation continues for 15 minutes at 2°-4° C. Tubes are then centrifuged at 1000g for 10 minutes, and 400-μL aliquots are dissolved in 5 mL of Scintivense (Fisher), Bound [^3 H]estradiol is determined by liquid scintillation spectrometry. Quench corrections are made by the external standard method.
The estrogen receptor affinity of 4-hydroxy tamoxifen acid was measured according to the assay described in Example 2. FIG. 2 is a graph of the effect of increasing concentrations (nM) of 4-HTA (--.quadrature.--), estradiol (--O--), and TA (-- --) on the binding of [^3 H]estradiol in uterine cytosol from immature rats. Specifically bound ^3 H from [^3 H]estradiol is plotted as a percentage of that bound in control incubations in the absence of 4-HTA, estradiol, or TA. Estradiol and tamoxifen, the non-hydroxylated analog of 4-HTA, were used as standards.

MCF7 breast cancer cells = experiment: Reversal of the inhibitory effect of tamoxifen on MCF 7 cell growth; format: cell-based, human; conditions: 1 μM tamoxifen, FIG. 4
Experimental: Cells were grown as summarized in Example 4 and tamoxifen was added to flasks as a solution in DMSO […], as were increasing concentrations of TA or 4-HTA.

MCF 7 cells = experiment: Stimulation of MCF 7 cell proliferation in estrogen free medium; format: cell-based, human; conditions: nine days, FIG. 5
Experimental: Cells were conditioned as described in Example 2, and then withdrawn from estrogen stimulation and incubated with phenol red free medium prepared with charcoal-stripped fetal calf serum. After five days, medium was changed and 4-HTA or estradiol were added as described in Example 2. After nine days, cell numbers were determined.
Each point is the average of 3-6 determinations. […] These findings indicate that 4-HTA is a pure estrogen with no residual estrogen antagonist activity.

[3] = Distribution and elimination of TA and 4-HTA after intraperitoneal [14C]TAM in immature female rats; format: in vivo, rat; conditions: for Percent of Dose Present as: Total 14C: i.p. [14C]TAM, rat, values ±5%
Experimental: Animals and Dosing. Female Sprague-Dawley rats, 45-55 grams each, were maintained on a normal laboratory diet and were divided into groups of four to six per experiment. […] This solution was prepared by dissolving the drug in 10 ml of 1% citric acid in N,N-dimethylacetamide and diluting the solution with 0.2 ml of 1.15% aqueous KCl just before use. Animals were housed in polycarbonate metabolism cages equipped for separate collection of urine and feces.
Processing of Biological Samples. At 24 and 48 hours after dosing, animals were killed by decapitation. Uteri and livers were removed and weights were recorded. Pooled uteri, and livers were homogenized in 10 volumes of methanol. Each homogenate was centrifuged at 400×g for 10 min. Triplicate 1.0 ml aliquots of supernatants were counted for radioactivity in 8 ml of Ecoscint (National Diagnostics, Somerville, N.J.). Collected urine was lyophilized. The residue was sonicated in methanol, and the mixture was filtered and the solid residue was washed with methanol to make the final volume equal to the original urine volume. This procedure removed endogenous polar materials with no loss of radioactivity. Feces collected 24 and 48 hr after dosing were homogenized in 10 volumes of methanol. The homogenate was centrifuged and analyzed for radioactivity as described above.
Extraction and Analysis. Unlabelled TA and 4-HTA […] were added as standards to methanol extracts of tissues, urine, and feces. A third standard, TA glyOH, was added only to the urine extract. Each solution was then concentrated under a stream of N2. To each residue was added 0.5 ml of 1% aqueous NaOH. The resulting mixture (pH≥11) was extracted serially two times with 1.0 ml portions of ether. Radioactivity present in these extracts was determined. To the aqueous phase was added 0.1 ml of 10% HCl, and the mixture (pH≤1) was extracted as before. Radioactivity was determined in some of these extracts. Otherwise, they were concentrated under a stream of N2. Each residue was dissolved in […] of acetone and the solution was applied to a TLC plate. Developed plates were segmented using the locations of reference compounds under UV light of 254 nm wavelength for guidance. Radioactivity was determined in segments containing reference compounds, and in some cases in all segments from TLC plates.
The specific activity of TA and 4-HTA eluted from developed chromatograms was determined by immersion of the segments containing these metabolites in a solution of 2.8% ammonia in methanol for 12 hr. Radioactivity in aliquots of eluates was determined, and quantities of TA and 4-HTA were estimated from absorbance of solutions at 283 nm using e283 =1.2×10^4 M^-1 cm-^-1 for each compound. Subsequent processing of eluates was conducted according to methods known in the art.

[4] = system: MCF 7 human breast cancer cells; experiment: Effect on proliferation of MCF 7 cells grown in the presence of estrogens; conditions: cell numbers after five days, FIG. 3
Experimental: The antiestrogenic effect of the nonsteroidal triarylethylene compounds of Formula I is measured by comparing the growth of MCF7 breast cancer cells in the presence and absence of the compounds, according to the method described below for 4-hydroxy tamoxifen acid.
Cell numbers were determined five days later, after approximately four population doublings in drug free controls. Data shown are expressed as percentages of cell numbers in control flasks and are averages of six estimates from two separate experiments.

[5] = Rat liver microsomal glucuronidation; conditions: rat, liver microsomes

Compound | Vmax [2] | estrogen receptor affinity relative to estradiol (affinity=100) (estrogen receptor) | reversal of the growth inhibitory effect of TAM on MCF 7 cells (MCF7 breast cancer cells) | substrate for UDP glucuronyl transferase [2] | inhibition of growth/proliferation of MCF 7 human breast cancer cells [4] | Km at 0.5 h [5] | further results
4-hydroxytamoxifen [4-HT] | 7.4 nmols/mg-min | – | – | – | – | – | Km [1]: 83 µM
CCC(=C(c1ccc(O)cc1)c1ccc(OCC(=O)O)cc1)c1ccccc1 [4-HTA, (E,Z)-2-{4-[1-(p-hydroxyphenyl)-2-phenyl]-1-butenyl}phenoxyacetic acid] | 0.0 nmols/mg-min | 21 | both compounds reverse the growth inhibitory effect; also recorded: reversed in a dose dependent manner | not a substrate | Neither tamoxifen acid nor 4-HTA inhibits the growth; also recorded: no effect on proliferation | – | estrogen receptor affinity as percent of that of estradiol (estrogen receptor; [3H]estradiol, uterine cytosol from immature rats, FIG. 2): 21%; maximal level of MCF 7 growth stimulation compared with estradiol (MCF 7 cells): stimulated growth to the same level as did estradiol; stimulation of MCF 7 cell growth (MCF 7 cells; submicromolar concentrations): dose dependent stimulation of growth; urinary elimination form ([3]; immature female rat): eliminated unchanged in the urine; presence in uterine or ovarian tissue ([3]; immature female rat, after [14C]TAM): not detected in uterine or ovarian tissue
CCC(=C(c1ccc(O)cc1)c1ccc(OCC(=O)OC)cc1)c1ccccc1 [Methyl 4-HTA] | 16.5 nmols/mg-min | – | – | excellent substrate | – | 73 µM | –
CCC(=C(c1ccccc1)c1ccc(OCC(=O)O)cc1)c1ccccc1 [TA, (E,Z)-4-(1,2-diphenyl-1-butenyl)phenoxyacetic acid] | 0.0 nmols/mg-min | 0.01 | to a lesser extent | – | Neither tamoxifen acid nor 4-HTA inhibits the growth | – | binding to the estrogen receptor (estrogen receptor; FIG. 2): also binds to the estrogen receptor; reversal of the growth inhibitory effect of TAM on MCF 7 cells (MCF7 breast cancer cells; listed as tamoxifen acid): both compounds reverse the growth inhibitory effect
CCC(=C(c1ccc(O)cc1)c1ccc(O)cc1)c1ccccc1 [TAM bis-phenol, 1,1-bis-(4-hydroxyphenyl)-2-phenyl-1-butene] | 14.7 nmols/mg-min | – | – | – | – | 54 µM | –
CC/C(=C(\c1ccccc1)c1ccc(OCCN(C)C)cc1)c1ccccc1 [TAM, (Z)-2-[4-(1,2-diphenyl-1-butenyl)phenoxy]-N,N-dimethylethanamine] | – | – | – | – | potent inhibitor of cell growth | – | Percent of Dose Present as: Total 14C ([3]; feces, 0-24 hr after dosing): 30.49%; Percent of Dose Present as: Total 14C ([3]; feces, 24-48 hr after dosing): 16.05%; Percent of Dose Present as: Total 14C ([3]; liver, 24 hr after dosing): 20.25%; Percent of Dose Present as: Total 14C ([3]; liver, 48 hr after dosing): 2.84%; Percent of Dose Present as: Total 14C ([3]; urine, 0-24 hr after dosing): 8.70%; Percent of Dose Present as: Total 14C ([3]; uterus, 24 hr after dosing): 0.12%
